This note sets out measurements from US10428051B2 (priority 2015, dated 2019).

The target of the experiment is human σ1 receptor (Homo sapiens, UniProt Q99720). Kind of experiment: biochemical. Details: μ and σ1 dual (binding to the σ1 receptor and the μ-opioid receptor expressed as Ki): key to the marks not given beside the values. Format: binding.
Sequence of human σ1 receptor (Q99720 whole entry): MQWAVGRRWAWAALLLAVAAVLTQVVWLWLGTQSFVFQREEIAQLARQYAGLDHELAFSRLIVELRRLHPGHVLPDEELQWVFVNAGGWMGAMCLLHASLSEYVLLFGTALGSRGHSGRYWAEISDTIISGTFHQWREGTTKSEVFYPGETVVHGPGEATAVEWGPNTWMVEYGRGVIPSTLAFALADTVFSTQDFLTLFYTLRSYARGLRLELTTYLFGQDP

In the case of `O=C(c1cccs1)N(CC1(N2CCN(Cc3ccccc3)CC2)CC1)c1ccccn1` [Example 47, N-((1-(4-benzylpiperazin-1-yl)cyclopropyl)methyl)-N-(pyridin-2-yl)thiophene-2-carboxamide], the “μ and σ1 dual (binding to the σ1 receptor and the μ-opioid receptor expressed as Ki)” value (“μ and σ1 dual” for short) was “++”.

For the compound `CCC(=O)N(CC)CC1(N2CCN(Cc3ccccc3)CC2)CCOCC1` [Example 99, N-((4-(4-benzylpiperazin-1-yl)tetrahydro-2H-pyran-4-yl)methyl)-N-ethylpropionamide], the “μ and σ1 dual” value was “++”.

On to `CCC(=O)N(CC1(N2CCN(CC(C)C)CC2)CCOCC1)c1ncccc1C(F)(F)F` [Example 63, N-((4-(4-isobutylpiperazin-1-yl)tetrahydro-2H-pyran-4-yl)methyl)-N-(3-(trifluoromethyl)pyridin-2-yl)propionamide], for which the “μ and σ1 dual” value is “++”. Same read-out and setting: under `CCC(=O)N(CC1(N2CCN(CCC(C)C)CC2)CCOCC1)c1ccccn1` [Example 153, N-((4-(4-isopentylpiperazin-1-yl)tetrahydro-2H-pyran-4-yl)methyl)-N-(pyridin-2-yl)propionamide] stands “++”; under `CCC(=O)N(CC(C)(C)N1CCN(CCc2ncccc2F)CC1)c1ccccc1` [Example 72, N-(2-(4-(2-(3-fluoropyridin-2-yl)ethyl)piperazin-1-yl)-2-methylpropyl)-N-phenylpropionamide], “++”. In general, Ki refers to a dissociation constant, usually derived from enzyme kinetics or from competition with a known ligand. With `CCOCCN1CCN(C2(CN(C(=O)CC)c3cccc(C(F)(F)F)n3)CCC2)CC1` [Example 202, N-((1-(4-(2-ethoxyethyl)piperazin-1-yl)cyclobutyl)methyl)-N-(6-(trifluoromethyl)pyridin-2-yl)propionamide], the inhibitory constant (Ki) was < 500 nM. As to `CCC(=O)N(CC1(N2CCN(Cc3ccccc3)CC2)CCOC(C)(C)C1)c1ncccc1C#N` (stereo not drawn) [Example 68, N-((4-(4-benzylpiperazin-1-yl)-2,2-dimethyltetrahydro-2H-pyran-4-yl)methyl)-N-(3-cyanopyridin-2-yl)propionamide], the “μ and σ1 dual” value was “++”. `CCC(=O)N(CC1(N2CCN(CC(C)C)CC2)CCSCC1)c1cccc(C(F)(F)F)n1` [Example 204, N-((4-(4-isobutylpiperazin-1-yl)tetrahydro-2H-thiopyran-4-yl)methyl)-N-(6-(trifluoromethyl)pyridin-2-yl)propionamide]: the Ki is < 500 nM. Same read-out and setting: to `CCOCCN1CCN(C2(CN(C(=O)CC)c3cccc(C(F)(F)F)n3)CCSCC2)CC1` [Example 205, N-((4-(4-(2-ethoxyethyl)piperazin-1-yl)tetrahydro-2H-thiopyran-4-yl)methyl)-N-(6-(trifluoromethyl)pyridin-2-yl)propionamide] belongs < 500 nM. Turning to `CCOCCCN1CCN(C2(CN(C(=O)CC)c3cccc(C(F)(F)F)n3)CCOCC2)CC1` [Example 150, N-((4-(4-(3-ethoxypropyl)piperazin-1-yl)tetrahydro-2H-pyran-4-yl)methyl)-N-(6-(trifluoromethyl)pyridin-2-yl)propionamide], the Ki was < 500 nM. As to `CCC(=O)N(CC1(N2CCN(Cc3ccncc3)CC2)CCOCC1)c1ccccc1` [Example 106, N-phenyl-N-((4-(4-(pyridin-4-ylmethyl)piperazin-1-yl)tetrahydro-2H-pyran-4-yl)methyl)propionamide], the “μ and σ1 dual” value is given as “++”. Same read-out and setting: to `CCC(=O)N(CC1(N2CCN(Cc3ccccc3)CC2)CCOCC1)c1ccc(C(F)(F)F)nc1` [Example 11, N-((4-(4-benzylpiperazin-1-yl)tetrahydro-2H-pyran-4-yl)methyl)-N-(6-(trifluoromethyl)pyridin-3-yl)propionamide] belongs “++”. Regarding `CCC(=O)N(CC1(N2CCN(Cc3ccc(NC(C)=O)cc3)CC2)CC1)c1ccccc1` [Example 115, N-((1-(4-(4-acetamidobenzyl)piperazin-1-yl)cyclopropyl)methyl)-N-phenylpropionamide], the “μ and σ1 dual” value is “++”. Take `CCC(=O)N(CC1(N2CCN(Cc3ccccc3)CC2)CC1)c1ccc(F)cn1` [Example 33, N-((1-(4-benzylpiperazin-1-yl)cyclopropyl)methyl)-N-(5-fluoropyridin-2-yl)propionamide]: the Ki was < 500 nM. Still for that read-out and setting: to `CCOCCN1CCN(C2(CN(C(=O)CC)c3cccc(C(F)(F)F)n3)CCOC3(CCCC3)C2)CC1` (stereo not drawn) [Example 176, N-((9-(4-(2-ethoxyethyl)piperazin-1-yl)-6-oxaspiro[4.5]decan-9-yl)methyl)-N-(6-(trifluoromethyl)pyridin-2-yl)propionamide] belongs < 500 nM. Take `CCC(=O)N(CC1(N2CCN(CCOC(C)C)CC2)CCOCC1)c1ccccn1` [Example 152, N-((4-(4-(2-isopropoxyethyl)piperazin-1-yl)tetrahydro-2H-pyran-4-yl)methyl)-N-(pyridin-2-yl)propionamide]: the inhibition constant (Ki) was > 500 nM. Still for that read-out and setting: to `CCC(=O)N(CC1(N2CCN(CCOC(C)C)CC2)CCOC(C)(C)C1)c1cccc(C#N)n1` (stereo not drawn) [Example 172, N-(6-cyanopyridin-2-yl)-N-((4-(4-(2-isopropoxyethyl)piperazin-1-yl)-2,2-dimethyltetrahydro-2H-pyran-4-yl)methyl)propionamide] belongs > 500 nM. For `CCC(=O)N(Cc1ccccc1)CC1(N2CCN(Cc3ccccc3)CC2)CCOCC1` [Example 14, N-benzyl-N-((4-(4-benzylpiperazin-1-yl)tetrahydro-2H-pyran-4-yl)methyl)propionamide], the “μ and σ1 dual” value was “++”. In the case of `CCC(=O)N(CC1(N2CCN(Cc3ccccc3)CC2)CCOCC1)c1ccc(F)cc1` [Example 81, N-((4-(4-benzylpiperazin-1-yl)tetrahydro-2H-pyran-4-yl)methyl)-N-(4-fluorophenyl)propionamide], the Ki is < 500 nM. As to `CCC(=O)N(CC1(N2CCN(Cc3cccnc3)CC2)CC1)c1ccccc1` [Example 119, N-phenyl-N-((1-(4-(pyridin-3-ylmethyl)piperazin-1-yl)cyclopropyl)methyl)propionamide], the Ki was < 500 nM. For `CCC(=O)N(CC1(N2CCN(Cc3ccccc3)CC2)CCOCC1)c1ccc(C(F)(F)F)cn1` [Example 7, N-((4-(4-benzylpiperazin-1-yl)tetrahydro-2H-pyran-4-yl)methyl)-N-(5-(trifluoromethyl)pyridin-2-yl)propionamide], the “μ and σ1 dual” value is reported as “++”. For `CCC(=O)N(CC1(N2CCN(Cc3ccc(F)cc3)CC2)CCOCC1)c1ccccn1` [Example 111, N-((4-(4-(4-fluorobenzyl)piperazin-1-yl)tetrahydro-2H-pyran-4-yl)methyl)-N-(pyridin-2-yl)propionamide], the Ki was < 500 nM.

Regarding `CCC(=O)N(CC1(N2CCN(Cc3ccc(F)c(F)c3)CC2)CCOCC1)c1ccccc1` [Example 108, N-((4-(4-(3,4-difluorobenzyl)piperazin-1-yl)tetrahydro-2H-pyran-4-yl)methyl)-N-phenylpropionamide], the Ki is < 500 nM. Take `CCNC(=O)N(CC1(N2CCN(CCc3ccccc3)CC2)CCCCC1)c1ccccc1` [Example 50, 3-ethyl-1-((1-(4-phenethylpiperazin-1-yl)cyclohexyl)methyl)-1-phenylurea]: the inhibition constant (Ki) is < 500 nM.

As for `CCC(=O)N(CC1(N2CCN(CCOCC(C)(C)F)CC2)CCOCC1)c1cccc(C(F)(F)F)n1` [Example 189, N-((4-(4-(2-(2-fluoro-2-methylpropoxy)ethyl)piperazin-1-yl)tetrahydro-2H-pyran-4-yl)methyl)-N-(6-(trifluoromethyl)pyridin-2-yl)propionamide], the Ki was < 100 nM. Turning to `CCC(=O)N(CC1(N2CCN(Cc3ncccc3F)CC2)CC1)c1ccccc1` [Example 120, N-((1-(4-((3-fluoropyridin-2-yl)methyl)piperazin-1-yl)cyclopropyl)methyl)-N-phenylpropionamide], the Ki was > 500 nM. Take `CCC(=O)N(CC1(N2CCN(C(C)c3ccccc3)CC2)CCOCC1)c1ccccn1` (stereo not drawn) [Example 134, N-((4-(4-(1-phenylethyl)piperazin-1-yl)tetrahydro-2H-pyran-4-yl)methyl)-N-(pyridin-2-yl)propionamide]: the “μ and σ1 dual” value is listed as “++”. As to `CCC(=O)N(CC1(N2CCN(CC(C)C)CC2)CCOC(C)(C)C1)c1cccc(C#N)n1` (stereo not drawn) [Example 87, N-(6-cyanopyridin-2-yl)-N-((4-(4-isobutylpiperazin-1-yl)-2,2-dimethyltetrahydro-2H-pyran-4-yl)methyl)propionamide], the inhibition constant Ki was > 500 nM. With `CCC(=O)N(CC(C)C)CC1(N2CCN(Cc3ccccc3)CC2)CCOCC1` [Example 15, N-((4-(4-benzylpiperazin-1-yl)tetrahydro-2H-pyran-4-yl)methyl)-N-isobutylpropionamide], the “μ and σ1 dual” value is reported as “++”. Take `CCC(=O)N(CC1(N2CCN(C(C)c3ccc(F)cc3)CC2)CCOCC1)c1cccc(C(F)(F)F)n1` (stereo not drawn) [Example 182, N-((4-(4-(1-(4-fluorophenyl)ethyl)piperazin-1-yl)tetrahydro-2H-pyran-4-yl)methyl)-N-(6-(trifluoromethyl)pyridin-2-yl)propionamide]: the Ki is < 500 nM. Still for that read-out and setting: under `CCC(=O)N(CC1(N2CCN(CC(C)C)CC2)CC1)c1cccc(C(F)(F)F)n1` [Example 123, N-((1-(4-isobutylpiperazin-1-yl)cyclopropyl)methyl)-N-(6-(trifluoromethyl)pyridin-2-yl)propionamide] stands < 100 nM; under `CCC(=O)N(CC1(N2CCN(Cc3ccccc3)CC2)CCOCC1)c1ccccn1` [Example 56, N-((4-(4-benzylpiperazin-1-yl)tetrahydro-2H-pyran-4-yl)methyl)-N-(pyridin-2-yl)propionamide], < 500 nM.

Turning to `CCC(=O)N(CC1(N2CCN(Cc3ccccc3)CC2)CCOC2(CCCC2)C1)c1ccccn1` (stereo not drawn) [Example 17, N-((9-(4-benzylpiperazin-1-yl)-6-oxaspiro[4.5]decan-9-yl)methyl)-N-(pyridin-2-yl)propionamide], the Ki is < 500 nM.
